In patent publication US20190352663A1 (priority 2018, published 2019):

Tests used:
[1] = biological target: CsRD21a-Flag expressed in N. benthamiana and secreted into the apoplast (Citrus sinensis); experiment: cell-based or functional assay
[2] = biological target: papain (Sigma-Aldrich), a PLCP from papaya (papaya) (UniProt P00784); experiment: cell-based or functional assay
PtoDC3000Δcip1 = type: cell-based, Pseudomonas syringae pv. tomato; conditions: 100 μg/mL
CsPR1 = type: in vivo, C. sinensis; conditions: 2 mM sprayed on leaves; 48 hours
CsSAG12-4 = type: in vivo, C. sinensis; conditions: 2 mM sprayed on leaves; 48 hours
CsSAG12-1 = type: in vivo, C. sinensis; conditions: 2 mM sprayed on leaves; 48 hours; not statistically significant
CsAALP = type: in vivo, C. sinensis; conditions: 2 mM sprayed on leaves; 48 hours; not statistically significant

Sequence of UniProt P00784 (P00784 134-345 limits assumed): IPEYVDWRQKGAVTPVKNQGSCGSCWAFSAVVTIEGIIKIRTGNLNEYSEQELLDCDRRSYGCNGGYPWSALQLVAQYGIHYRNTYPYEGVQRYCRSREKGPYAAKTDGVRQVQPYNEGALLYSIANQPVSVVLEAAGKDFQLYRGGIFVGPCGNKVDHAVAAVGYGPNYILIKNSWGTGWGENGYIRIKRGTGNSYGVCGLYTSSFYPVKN

purified recombinant SDE1 protein (tag-free after removal of the His-SUMO tag)
CsRD21a activity (ABPP, ImageJ signal intensity) (% reduction at 0.8 µM SDE1) [1]: 9
CsRD21a activity (ABPP, ImageJ signal intensity) (% reduction at 1.6 µM SDE1) [1]: 62
CsRD21a activity (ABPP, ImageJ signal intensity) (% reduction at 3.2 µM SDE1) [1]: 96
DCG-04 labeling of papain (ABPP) (% reduction at 1.6 µM SDE1) [2]: 53

papain
inhibitory effect on bacterial growth in artificial media (PtoDC3000Δcip1): not observed

O=C(O)c1ccccc1O [SA, salicylic acid]
expression of CsPR1 (CsPR1): increase
expression of CsSAG12-4 (CsSAG12-4): significantly up-regulated
expression of CsSAG12-1 (CsSAG12-1): trend of increased expression
expression of CsAALP (CsAALP): trend of increased expression
